Earlier results on 16 compounds are cited in patent publication US7094735B2, “Herbicide microemulsion-forming-concentrates, microemulsions, and methods” (priority 2001, dated 2006).

For this data set the following is noted: Table 1, exemplary pKa values of acidic herbicides.
Take `O=C(O)CCCOc1ccc(Cl)cc1Cl` [2,4-DB]: the pKas is on record as 4.8.

Regarding `O=C(O)c1cc(Oc2ccc(C(F)(F)F)cc2Cl)ccc1[N+](=O)[O-]` [Acifluorfen], the pKas is 3.86.

In the case of `N#Cc1cc(Br)c(O)c(Br)c1` [Bromoxynil], the pKas is recorded as 4.06.

For `COc1c(Cl)ccc(Cl)c1C(=O)O` [Dicamba, 3,6-dichloro-O-anisic acid], the pKas was 1.87.

As to `CC(Oc1ccc(Cl)cc1Cl)C(=O)O` (stereo not shown) [Dichlorprop], the pKas was 2.86.

As for `CC(Oc1ccc(Oc2ccc(Cl)cc2Cl)cc1)C(=O)O` (stereo not shown) [Diclofop], the pKas was 3.57.

Take `C[C@@H](Oc1ccc(Oc2ccc(C(F)(F)F)cn2)cc1)C(=O)O` [Fluazifop-p]: the pKas was 2.98.

For `CC(Oc1ccc(Oc2ncc(C(F)(F)F)cc2Cl)cc1)C(=O)O` (stereo not shown) [Haloxyfop], the pKas was 4.33.

Consider `CC(C)C1(C)N=C(c2nc3ccccc3cc2C(=O)O)NC1=O` (stereo not shown) [Imazaquin], for which the pKas is on record as 3.8.

Regarding `CCc1cnc(C2=NC(C)(C(C)C)C(=O)N2)c(C(=O)O)c1` (stereo not shown) [Imazethapyr], the pKas is on record as 3.9.

In the case of `N#Cc1cc(I)c(O)c(I)c1` [Ioxynil], the pKas is 3.96.

For the compound `Nc1c(Cl)c(Cl)nc(C(=O)O)c1Cl` [Picloram], the pKas is listed as 2.3.

In the case of `O=C(O)c1c(Cl)ccc2cc(Cl)cnc12` [Quinclorac], the pKas was 4.34.

Turning to `CCC/C(=N\OCC)C1=C(O)CC(CC(C)SCC)CC1=O` (stereo not shown) [Sethoxydim], the pKas is on record as 4.16.

Consider `O=C(O)COc1nc(Cl)c(Cl)cc1Cl` [Triclopyr, 3,5,6-trichloro-2-pyridyloxyacetic acid], for which the pKas is reported as 2.68.

For the compound Imazamethbenz, the pKas is on record as 2.9.
